# According to ChEMBL document CHEMBL1201862, “PubChem BioAssay data set” (2004):
#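 Following 48 hours of exposure in 96-well plates, responses at five concentrations were used to interpolate endpoints linearly. Abbreviation: GI50, concentration required for 50% inhibition of growth.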 Activity calls are given as the source filed them. No stated cut-off is given here; in the data, active = GI50 up to about 1.1 µM and inactive = higher.
# Tests used:
# Assay in all cases: NCI tumour cell line growth inhibition, 48 h
# M19-MEL = system: M19-MEL
# NCI-H522 = system: NCI-H522
# HOP-18 = system: HOP-18
# HL-60 = system: HL-60
# HT-29 = system: HT-29
# K562 = system: K562
# SNB-75 = system: SNB-75
# SK-OV-3 = system: SK-OV-3
# HOP-62 = system: HOP-62
# SNB-78 = system: SNB-78
# ACHN = system: ACHN
# SF-539 = system: SF-539
# DMS-273 = system: DMS-273
# NCI-H226 = system: NCI-H226
# DLD-1 = system: DLD-1
# NCI-H23 = system: NCI-H23
# OVCAR-3 = system: OVCAR-3
# TK-10 = system: TK-10
# KM12 = system: KM12
# LOX IMVI = system: LOX IMVI
# M14 = system: M14
# OVCAR-5 = system: OVCAR-5
# HCT-116 = system: HCT-116
# COLO 205 = system: COLO 205
# SNB-19 = system: SNB-19
# HCC 2998 = system: HCC 2998
# LXFL 529 = system: LXFL 529
# RPMI-8226 = system: RPMI-8226
# XF498 = system: XF498
# SW-620 = system: SW-620
# NCI-H460 = system: NCI-H460
# SF-295 = system: SF-295
# 786-0 = system: 786-0
# CCRF-CEM = system: CCRF-CEM
# U-251 = system: U-251
# OVCAR-8 = system: OVCAR-8
# HCT-15 = system: HCT-15
# A549 = system: A549
# UACC-62 = system: UACC-62
# UO-31 = system: UO-31
# EKVX = system: EKVX
# SF-268 = system: SF-268
# RXF 393 = system: RXF 393
# OVCAR-4 = system: OVCAR-4
# SK-MEL-28 = system: SK-MEL-28
# SK-MEL-5 = system: SK-MEL-5
# Malme-3M = system: Malme-3M
# MOLT-4 = system: MOLT-4
# RXF 631 = system: RXF 631
# UACC-257 = system: UACC-257
# SN12C = system: SN12C
# KM-20L2 = system: KM-20L2
# CAKI-1 = system: CAKI-1
# SK-MEL-2 = system: SK-MEL-2
# DMS-114 = system: DMS-114
# HOP-92 = system: HOP-92
# IGROV-1 = system: IGROV-1
compound,measurement,setting,value
CCS/C(=N\c1ccccc1)SC,GI50,M19-MEL,> 100 µM (inactive)
same,GI50,NCI-H522,> 100 µM (inactive)
same,GI50,HOP-18,> 100 µM (inactive)
same,GI50,HL-60,> 100 µM (inactive)
same,GI50,HT-29,> 100 µM (inactive)
same,GI50,K562,> 100 µM (inactive)
same,GI50,SNB-75,51.8 µM (inactive)
same,GI50,SK-OV-3,> 100 µM (inactive)
same,GI50,HOP-62,> 100 µM (inactive)
same,GI50,SNB-78,> 100 µM (inactive)
same,GI50,ACHN,> 100 µM (inactive)
same,GI50,SF-539,> 100 µM (inactive)
same,GI50,DMS-273,> 100 µM (inactive)
same,GI50,NCI-H226,> 100 µM (inactive)
same,GI50,DLD-1,> 100 µM (inactive)
same,GI50,NCI-H23,> 100 µM (inactive)
same,GI50,OVCAR-3,> 100 µM (inactive)
same,GI50,TK-10,> 100 µM (inactive)
same,GI50,KM12,> 100 µM (inactive)
same,GI50,LOX IMVI,> 100 µM (inactive)
same,GI50,M14,> 100 µM (inactive)
same,GI50,OVCAR-5,> 100 µM (inactive)
same,GI50,HCT-116,> 100 µM (inactive)
same,GI50,COLO 205,> 100 µM (inactive)
same,GI50,SNB-19,> 100 µM (inactive)
same,GI50,HCC 2998,> 100 µM (inactive)
same,GI50,LXFL 529,> 100 µM (inactive)
same,GI50,RPMI-8226,> 100 µM (inactive)
same,GI50,XF498,> 100 µM (inactive)
same,GI50,SW-620,> 100 µM (inactive)
same,GI50,NCI-H460,> 100 µM (inactive)
same,GI50,SF-295,> 100 µM (inactive)
same,GI50,786-0,> 100 µM (inactive)
same,GI50,CCRF-CEM,> 100 µM (inactive)
same,GI50,U-251,> 100 µM (inactive)
same,GI50,OVCAR-8,> 100 µM (inactive)
same,GI50,HCT-15,> 100 µM
same,GI50,A549,> 100 µM (inactive)
same,GI50,UACC-62,> 100 µM (inactive)
same,GI50,UO-31,> 100 µM (inactive)
same,GI50,EKVX,> 100 µM (inactive)
same,GI50,SF-268,> 100 µM (inactive)
same,GI50,RXF 393,> 100 µM (inactive)
same,GI50,OVCAR-4,> 100 µM (inactive)
same,GI50,SK-MEL-28,> 100 µM (inactive)
same,GI50,SK-MEL-5,> 100 µM (inactive)
same,GI50,Malme-3M,> 100 µM (inactive)
same,GI50,MOLT-4,> 100 µM (inactive)
same,GI50,RXF 631,> 100 µM (inactive)
same,GI50,UACC-257,> 100 µM (inactive)
same,GI50,SN12C,> 100 µM (inactive)
same,GI50,KM-20L2,> 100 µM (inactive)
same,GI50,CAKI-1,> 100 µM (inactive)
same,GI50,SK-MEL-2,> 100 µM (inactive)
same,GI50,DMS-114,> 100 µM (inactive)
same,GI50,HOP-92,> 100 µM (inactive)
same,GI50,IGROV-1,> 100 µM (inactive)
